In US20090281025A1, “INHIBITION OF TUMOR GROWTH AND METASTASIS BY ATF2-DERIVED PEPTIDES” (Mount Sinai School Of Medicine of New York University, priority 2004, published 2009):
“And” between values parts separate entries of the source, which are not always exact repeats. Identical values can stand only once.

What was measured:
SW1 tumors = assay: cDNA microarray gene expression profiling of SW1 tumors; type: in vivo, mouse
From the text: FIGS. 8A and 8B show gene profiling analysis of SW1 tumors expressing the ATF2^51-100 peptide. Tumors generated, in the absence or presence of a peptide, were used as source of mRNA for array analysis of 10K mouse genes (see Example 5). […] In all cases, the data represent analyses carried out 4 times from 4 different pools of tumors.
To elucidate the molecular pathways affected by expression of the ATF2^51-100 peptide, we used cDNA microarray analysis to compare the RNA expression profiles of SW1 tumors that express this peptide or a control vector (FIG. 8A). The 10k mouse Gem 2 gene set (Incyte Genomics Inc, Palo Alto, Calif.) was printed at the NCI on poly-L-lysine-coated glass using a Biorobotics TASII arrayer (Cambridge, England). All protocols for manufacturing and hybridization of microarrays are posted on the NCI web site (see, e.g., nciarray.nci.nih.gov). Approximately 20 μg of total RNA were used in the reverse transcription reaction to directly label the probe with Cy-5 dUTP or Cy-3 dUTP (Amersham). Hybridizations were performed at 65° C. for 12-18 h in a hybridization volume of 35 μL. The hybridized arrays were scanned using an Axon GenePix 4000 scanner (Union City, Calif.) and fluorescence data were collected using the GenePix software.
mRNA was prepared from a pool of 4 tumors obtained from two different experiments. In both cases, tumors were excised 2 weeks after subcutaneous injection of cells. Because the fluorescently labeled Cy dyes may incorporate into the reverse-transcribed cDNA with different efficiencies, RNA isolated from both cell types was always labeled with both combinations of Cy dyes. […] SW1 vector control cells were labeled with Cy-3 (F532) and the SW1-ATF 51-100 cells were labeled with Cy-5 (F635).

SW-1 cells = assay: Caspase and PARP cleavage immunoblot in SW-1 cells; type: cell-based, mouse; conditions: peptides by transfection, UCN-01 (5 μm) 24 hours
Protocol: Human melanoma cells LU1205 were transfected with the nucleic acid molecules that encode either ATF2^51-100 peptide or ATF2^51-60 peptide. Twenty-four hours after transfection, cells were treated with of UCN-01 (5 μm) for 24 hours. Immunoblotting analysis was performed using caspase 9 and PARP antibodies, and β-actin was used as a loading control (FIG. 6A). The same experiment was performed in SW-1 cells (FIG. 6B). Stars point to the position of the uncleaved form whereas arrows point to the cleaved products.
(§1) Effect on Apoptosis. Assessed next was the degree of apoptosis in SW1 cells under normal growth (spontaneous) as well as following treatment with chemotherapeutic drugs. Cells were analyzed to detect spontaneous (basal) or induced apoptosis [following treatment with the kinase inhibitor UCN-01 (kindly provided by NCI repository) for 36 hours]. Apoptosis was measured by using FACS (Ivanov et al., Mol. Cell, 2001, 7:517-28) to quantify the percentage of hypodiploid nuclei undergoing DNA fragmentation. Nucleation as a marker of apoptosis was monitored via DAPI staining of cells at indicated time points after their treatment. Caspase activity was monitored by immunoblots using antibodies to caspase 9 (Santa Cruz). PARP cleavage was monitored by corresponding antibodies (PharMingen).

SW1 melanoma cells = assay: Apoptosis of SW1 cells by FACS (hypodiploid nuclei); type: cell-based, mouse; conditions: SW1 cells expressing peptide, given as control-to-peptide increase
Protocol: (§2) SW1 cells constitutively expressing the indicated ATF2 peptides were transfected with either TRE-Luc (FIG. 5A) or with Jun2-Luc (FIG. 5B), and proteins were prepared for analysis of luciferase activity after 18 hours. Analysis was performed in duplicate, and the data reflect three independent experiments. SW1 cells expressing the ATF2 peptides were analyzed to establish the degree of spontaneous (basal) apoptosis as well as apoptosis 24 hours following treatment with the chemotherapeutic drug UCN-01 (FIG. 5C). The data represent triplicate analysis reproduced three times.
as §1

Jun2-Luc = Jun2-Luc luciferase reporter assay in SW1 cells; type: cell-based, mouse; conditions: SW1 cells expressing peptide, luciferase after 18 hours
Protocol: as §2
Alteration of ATF2 Transcriptional Activity. Assessed next was whether the short peptide caused any change in transcriptional activity mediated by ATF2 and its heterodimeric partners, using the TRE and Jun2 promoter sequences linked to the Luciferase marker gene. These reporter constructs (0.3 μg) were cotransfected with the respective expression vectors into melanoma cells (5×10^5) using Lipofectamine (Invitrogen). Luciferase activity was measured using the Luciferase assay system (Promega).

[1] = tumors expressing peptide vs control vector

ATF2^51-100: amino-terminal peptide of ATF2, amino acid residue 51 to 100 (about a 50 amino acid peptide), expressed in tumor cells (MTLKFGPARNDSVIVADQTPTPTRFLKNCEEVGLFNELASPFENEFKKAS; UniProt P15336 51-100, looked up, fragment)
expression of growth-associated genes (epidermal growth factor, hepatoma-derived growth factor, insulin-like growth factor) and interferon-associated genes (SW1 tumors; [1]): consistent down-regulation
expression of tumor necrosis factor-related genes (SW1 tumors; [1]): strongly upregulated
Ratio ATFp2-Cy5 vs parental control-Cy3: Kifap3 (kinesin-associated protein 3) (SW1 tumors; upregulated, IMAGE: 331395, hybridizations #1-#4, listed as ATFp2): 2.1192 and 2.1268 and 2.9811 and 3.9220
Ratio ATFp2-Cy5 vs parental control-Cy3: Hbb-b1 (hemoglobin, beta adult major chain) (SW1 tumors; upregulated, IMAGE: 332935, hybridizations #1-#4, listed as ATFp2): 3.1997 and 3.2112 and 2.7725 and 3.6146
Ratio ATFp2-Cy5 vs parental control-Cy3: Hbb-b1 (hemoglobin, beta adult major chain) (SW1 tumors; upregulated, IMAGE: 518979, hybridizations #1-#4, listed as ATFp2): 2.8994 and 2.9099 and 2.4766 and 2.5621
Ratio ATFp2-Cy5 vs parental control-Cy3: D0H4S114 (DNA segment, human D4S114) (SW1 tumors; upregulated, IMAGE: 535754, hybridizations #1-#4, listed as ATFp2): 3.0625 and 3.0736 and 4.2117 and 3.5432
Ratio ATFp2-Cy5 vs parental control-Cy3: Scyb13 (small inducible cytokine subfamily B (Cys-X-Cys), member 13) (SW1 tumors; upregulated, IMAGE: 596683, hybridizations #1-#4, listed as ATFp2): 3.6935 and 3.7069 and 4.4104 and 4.1619
Ratio ATFp2-Cy5 vs parental control-Cy3: C85356 (expressed sequence C85356) (SW1 tumors; upregulated, IMAGE: 776163, hybridizations #1-#4, listed as ATFp2): 6.2407 and 6.2633 and 5.4673 and 4.7632
Ratio ATFp2-Cy5 vs parental control-Cy3: ESTs (SW1 tumors; upregulated, IMAGE: 809168, hybridizations #1-#4, listed as ATFp2): 2.6457 and 2.6552 and 2.6858 and 2.3889
Ratio ATFp2-Cy5 vs parental control-Cy3: Mme (membrane metallo endopeptidase) (SW1 tumors; upregulated, IMAGE: 849871, hybridizations #1-#4, listed as ATFp2): 4.8477 and 4.8652 and 4.8096 and 4.5247
Ratio ATFp2-Cy5 vs parental control-Cy3: Ogn (osteoglycin) (SW1 tumors; upregulated, IMAGE: 902951, hybridizations #1-#4, listed as ATFp2): 2.7606 and 2.7705 and 2.7398 and 2.3263
Ratio ATFp2-Cy5 vs parental control-Cy3: RIKEN cDNA 1110068L01 gene (SW1 tumors; upregulated, IMAGE: 960604, hybridizations #1-#4, listed as ATFp2): 2.7162 and 2.7260 and 3.6427 and 3.9752
Ratio ATFp2-Cy5 vs parental control-Cy3: Akr1c13 (aldo-keto reductase family 1, member C13) (SW1 tumors; upregulated, IMAGE: 1052178, hybridizations #1-#4, listed as ATFp2): 3.6319 and 3.6450 and 3.4859 and 3.4284
Ratio ATFp2-Cy5 vs parental control-Cy3: Tna (tetranectin (plasminogen-binding protein)) (SW1 tumors; upregulated, IMAGE: 1068748, hybridizations #1-#4, listed as ATFp2): 5.0430 and 5.0612 and 4.9219 and 4.6123
Ratio ATFp2-Cy5 vs parental control-Cy3: Top1 (topoisomerase (DNA) I) (SW1 tumors; upregulated, IMAGE: 1107479, hybridizations #1-#4, listed as ATFp2): 2.6799 and 2.6896 and 3.4635 and 3.3665
Ratio ATFp2-Cy5 vs parental control-Cy3: Il1b (interleukin 1 beta) (SW1 tumors; upregulated, IMAGE: 1139544, hybridizations #1-#4, listed as ATFp2): 2.5423 and 2.5514 and 3.4806 and 3.3033
Ratio ATFp2-Cy5 vs parental control-Cy3: Igfbp2 (insulin-like growth factor binding protein 2) (SW1 tumors; upregulated, IMAGE: 1277469, hybridizations #1-#4, listed as ATFp2): 3.2649 and 3.2767 and 3.3268 and 3.0043
Ratio ATFp2-Cy5 vs parental control-Cy3: Igj (immunoglobulin joining chain) (SW1 tumors; upregulated, IMAGE: 1277614, hybridizations #1-#4, listed as ATFp2): 3.0715 and 3.0826 and 3.4986 and 4.0870
Ratio ATFp2-Cy5 vs parental control-Cy3: Sp3 (trans-acting transcription factor 3) (SW1 tumors; upregulated, IMAGE: 1399769, hybridizations #1-#4, listed as ATFp2): 2.3816 and 2.3902 and 3.1712 and 3.6075
Ratio ATFp2-Cy5 vs parental control-Cy3: Efemp1 (epidermal growth factor-containing fibulin) (SW1 tumors; upregulated, IMAGE: 1480170, hybridizations #1-#4, listed as ATFp2): 2.6354 and 2.6449 and 2.6270 and 2.3980
Ratio ATFp2-Cy5 vs parental control-Cy3: Lum (lumican) (SW1 tumors; upregulated, IMAGE: 2101997, hybridizations #1-#4, listed as ATFp2): 2.5956 and 2.6050 and 2.6414 and 2.8732
activation of caspase 9 (cleavage fragments) (SW-1 cells): activation of caspase 9 even prior to treatment with UCN-01
spontaneous (basal) apoptosis (SW1 melanoma cells; absence of treatment): 12-55%
UCN-01-induced apoptosis (SW1 melanoma cells; treated with UCN-01): 20-77%
Jun2-Luc transcriptional activity (Jun2-Luc): efficiently inhibited
